Patent US10590158B2 (priority 2015, dated 2020)

What was measured:
Experiment in all cases: cells
Assay type in all cases: cell-based
293T cells = details: Homo sapiens, HEK-293T, 72 h, read-out: IC50 293T
MES SA cells = details: Homo sapiens, 72 h, read-out: IC50 MES SA
MES DX cells = details: MDR1, 72 h, read-out: IC50 MES DX

`COC(=O)NC1=C2/C(=C\CSSSC)[C@](O)(C#C/C=C\C#C[C@]2(O)OC2OC(C)C(SC)(C(=O)c3nccc4c3[nH]c3ccc(O)cc34)C(O)C2OC2CC(OC)C(NC(C)C)CO2)CC1=O` (stereo partly shown) was tested, and the IC50 (293T cells) was 0.0162 nM and the IC50 (MES SA cells) was 0.0126 nM.
For `COC(=O)NC1=C2/C(=C\CSSC)[C@](O)(C#C/C=C\C#C[C@]2(O)OC2OC(C)C(SC)(C(=O)c3nccc4c3[nH]c3ccc(O)cc34)C(O)C2OC2CC(OC)C(NC(C)C)CO2)CC1=O` (stereo partly shown), the IC50 (MES DX cells) was 34.6 nM and the IC50 (293T cells) was 0.00146 nM.
